Target: T1, human SCD1 enzyme (Homo sapiens, UniProt O00767)
T1 sequence (O00767 1-359): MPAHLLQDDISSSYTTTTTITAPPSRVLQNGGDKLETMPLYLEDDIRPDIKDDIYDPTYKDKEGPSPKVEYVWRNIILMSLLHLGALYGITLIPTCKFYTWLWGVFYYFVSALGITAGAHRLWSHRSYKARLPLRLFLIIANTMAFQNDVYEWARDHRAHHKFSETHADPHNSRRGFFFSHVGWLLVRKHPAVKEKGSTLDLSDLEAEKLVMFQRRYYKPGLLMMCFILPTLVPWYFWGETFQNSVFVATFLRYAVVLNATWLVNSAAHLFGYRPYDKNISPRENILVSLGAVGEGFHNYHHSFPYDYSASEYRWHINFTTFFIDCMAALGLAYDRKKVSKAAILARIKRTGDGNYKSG
Assay: Tritiated water release assay (conversion of radiolabeled stearoyl-CoA to oleoyl-CoA)
Type: biochemical
Conditions: 10 μM concentration of test compounds; microsomal SCD1, 3H stearoyl CoA, 37° C. 30 minutes; percent of control reaction; read-out: % Inhibition
Protocol: The in-vitro activity of the compounds of the present invention against stearoyl coenzyme desaturase was determined by following conversion of radiolabeled-stearoyl-CoA to oleoyl-CoA using human SCD1 enzyme using a previously published assay procedure with some modifications (Barbara R Talamo and Konrad Bloch, Analytical Biochemistry, 1969, 29, 300-304). This assay protocol is only illustrative and is not meant to limit to the scope of the present invention.
In this assay the microsomal SCD1 enzyme desaturates its substrate, Stearoyl CoA (purchased from American Radiochemicals Ltd.) which is tritiated at C9 and C10 positions. Test compounds were dissolved in dimethylsulfoxide and tested at 10 μM final concentration. Before substrate addition, the test compound or standard reference compound (conjugated linoleic acid at 100 μM final concentration) were pre-incubated in reaction buffer with the enzyme for 10 minutes at 30° C. with shaking. Reaction buffer was prepared as described in literature (Obukowicz et al. JPET, 1998, 287, 157-166) except that the MgCl2, ATP (purchased from Sigma) and CoA (purchased from Sigma) concentrations were changed to 4.9 mM, 7.2 mM and 0.54 mM respectively. The desaturation reaction was initiated by addition of 0.5 μCi of ^3H stearoyl CoA and incubated at 37° C. for 30 minutes with shaking. A control reaction was set without any test compound/reference inhibitor to capture maximum enzymatic activity in the assay. Inhibition of enzyme activity was calculated as a percent of this control reaction giving maximum catalysis and the results are given in Table 5.
Table 5: Tritiated water release assay at 10 μM substrate concentration *Conjugated Linoleic acid was used as a reference standard

Row | inhibition at 10 µM | Structure (SMILES)
1 | 20% | O=C(c1ccccc1C(F)(F)F)N1CCN(c2ccc(C#Cc3cccc(CO)c3)cn2)CC1 [Example 33, 4-{5-[2-(3-Hydroxymethylphenyl)-1-ethynyl]-2-pyridyl}piperazino-2-trifluoromethyl-phenylmethanone]
2 | 36% | O=C(O)c1cc(C#Cc2ccc(N3CCN(C(=O)c4ccccc4C(F)(F)F)CC3)nc2)ccc1O [Example 35, 2-Hydroxy-5-(2-{6-[4-(2-trifluoromethylbenzoyl)piperazino]-3-pyridyl}-1-ethynyl)-benzoic acid]
3 | 23% | CC(=O)Nc1cccc(C#Cc2ccc(N3CCN(C(=O)c4ccccc4C(F)(F)F)CC3)nc2)c1 [Example 36, N1-[3-(2-{6-[4-(2-Trifluoromethylbenzoyl)piperazino]-3-pyridyl}-1-ethynyl)phenyl]acetamide]
4 | 43% | O=C(c1ccccc1C(F)(F)F)N1CCN(c2ccc(C#Cc3cnccn3)cn2)CC1 [Example 45]
5 | 91% | O=C(c1ccccc1C(F)(F)F)N1CCN(c2ccc(C#Cc3ccc4[nH]ccc4c3)cn2)CC1 [Example 49, 4-{5-[2-(1H-5-Indolyl)-1-ethynyl]-2-pyridyl}piperazino-2-trifluoromethylphenyl-methanone]
6 | 66% | O=C(c1ccccc1C(F)(F)F)N1CCN(c2ncc(C#Cc3ccc4[nH]ccc4c3)cn2)CC1 [Example 50, 4-{5-[2-(1H-5-Indolyl)-1-ethynyl]-2-pyrimidinyl}piperazino-2-trifluoromethylphenyl-methanone]

The remaining lines, values behind:

Row | Structure (SMILES) | inhibition at 10 µM
7 | CCOC(=O)c1cc(C#Cc2ccc(N3CCN(C(=O)c4ccccc4C(F)(F)F)CC3)nc2)ccc1OC(C)=O [Example 34] | 29%
8 | O=C(c1ccccc1C(F)(F)F)N1CCN(c2ccc(C#Cc3ccc(O)cc3)nn2)CC1 [Example 37] | 89%
9 | O=C(c1ccccc1C(F)(F)F)N1CCN(c2ccc(C#Cc3cccc(O)c3)nn2)CC1 [Example 38, 4-{6-[2-(3-Hydroxyphenyl)-1-ethynyl]-3-pyridazinyl}piperazino-2-trifluoromethyl-phenylmethanone] | 99%
10 | O=C(c1ccccc1C(F)(F)F)N1CCN(c2ccc(C#Cc3ccc(F)cc3)nn2)CC1 [Example 39] | 75%
11 | O=C(c1ccccc1C(F)(F)F)N1CCN(c2ccc(C#Cc3ccc(F)c(F)c3)nn2)CC1 [Example 40, 4-{6-[2-(3,4-Difluorophenyl)-1-ethynyl]-3-pyridazinyl}piperazino-2(trifluoromethyl)-phenylmethanone] | 81%
12 | O=C(c1ccccc1C(F)(F)F)N1CCN(c2ccc(C#Cc3ccc(C(F)(F)F)cc3)nn2)CC1 [Example 41, 2-Trifluoromethylphenyl-4-{6-[2-(4-trifluoromethylphenyl)-1-ethynyl]-3-pyridazinyl}-piperazinomethanone] | 93%
13 | O=C(c1ccccc1C(F)(F)F)N1CCN(c2ncc(C#Cc3ccc(O)cc3)cn2)CC1 [Example 42, 4-{5-[2-(4-Hydroxyphenyl)-1-ethynyl]-2-pyrimidinyl}piperazino-2-trifluoromethyl-phenylmethanone] | 92%
14 | O=C(c1ccccc1C(F)(F)F)N1CCN(c2ncc(C#Cc3cccc(O)c3)cn2)CC1 [Example 43] | 98%
15 | CCOC(=O)c1ccc(C#Cc2ccc(N3CCN(C(=O)c4ccccc4C(F)(F)F)CC3)nc2)nc1 [Example 44] | 37%
16 | O=C(c1cc(Cl)ccc1Cl)N1CCN(c2ccc(C#Cc3cnccn3)cn2)CC1 [Example 46] | 29%
17 | CCCCn1ccnc1C#Cc1ccc(N2CCN(C(=O)c3ccccc3C(F)(F)F)CC2)nc1 [Example 47, 4-{5-[2-(1-Butyl-1H-2-imidazolyl)-1-ethynyl]-2-pyridyl}piperazino-2-trifluoromethyl-phenylmethanone] | 33%
18 | CC(C)CCn1ccnc1C#Cc1ccc(N2CCN(C(=O)c3ccccc3C(F)(F)F)CC2)nc1 [Example 48] | 22%
19 | O=C(c1ccccc1C(F)(F)F)N1CCN(c2ncc(C#Cc3ccc(N4CCCS4(=O)=O)cc3)cn2)CC1 [Example 51] | 22%

Reference: patent US20080182851A1, “ACETYLENE DERIVATIVES AS STEAROYL COA DESATURASE INHIBITORS” (Glenmark Pharmaceuticals S.A., priority 2006, published 2008)
